pEC50: −log10 of the molar value. Counter-ions that a name gives are not always drawn.
How the values were obtained:
[1] = tested on: isolated rabbit urinary bladder; test: Relaxation effect on potassium-induced contraction of isolated rabbit urinary bladder; assay type: cell-based; settings: Oryctolagus cuniculus; 50% relaxation concentration; high-K+ (30 mM) pre-contracted rabbit bladder strips; relaxation as percentage of the maximum produced by 0.1 mM papaverine; read-out: EC50 value range
Procedure, shortened: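 Mucosa-free longitudinal bladder strips from male NZW rabbits, held at 37 °C in Krebs solution gassed with 95% O2/5% CO2, were precontracted with 30 mM K+. Compounds were added cumulatively (10^−8–10^−4 M), with isometric relaxation expressed relative to 0.1 mM papaverine maximum. EC50 was derived and reported as rank ranges.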

[2] = tested on: rhythmic bladder contractions induced by substance P; test: Inhibitory effect on the rhythmic bladder contractions induced by substance P in anesthetized rats; assay type: in vivo, rat; settings: time during which frequency of rhythmic contraction was completely inhibited, 0.25 mg/kg of the compound, substance P infusion
Procedure, shortened: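 Value is duration (min) of complete inhibition of bladder contractions, ranked A/B/C at 20 and 10 min cut-offs. Intravenous dosing (0.5% Tween 80 saline) in female SD rats under urethane, bladder saline-filled and contractions maintained by substance P infusion, 0.33 μg/kg/min.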

Row | SMILES | pEC50 [1] | melting point | 100% inhibition time range [2]
1 | CS(=O)(=O)Cc1nc(-c2ccc(F)cc2)oc1-c1ccsc1 [Preparation Example 623] | 5.52 to 6.00 | 208 to 210 °C | C (A≧20>B≧10>C (minute))
2 | COC(=O)c1nc(-c2ccc(F)cc2)oc1-c1ccsc1 [Preparation Example 622] |  | 213 to 214 °C | B (A≧20>B≧10>C (minute))
3 | CCOC(=O)c1sccc1-c1nc(CC)c(-c2cccnc2)[nH]1 [Preparation example 10] | 5.52 to 6.00 | 127 to 129 °C | 
4 | CCONC(=O)Cc1nc(-c2ccc(F)cc2)oc1-c1ccsc1 [Preparation Example 377] | 5.52 to 6.00 | 183 to 184 °C | C (A≧20>B≧10>C (minute))
5 | C[S+]([O-])Cc1nc(-c2ccc(F)cc2)oc1-c1ccsc1 (centres unmarked) [Preparation Example 624] |  | 173 to 174.5 °C | C (A≧20>B≧10>C (minute))
6 | CCOC(=O)Cc1nc(-c2ccc(F)cc2)oc1I [Preparation Example 295] |  | 120 to 122 °C | B (A≧20>B≧10>C (minute))
7 | CCc1nc(-c2ccccc2Cl)[nH]c1-c1cccnc1 (as salt: HCl) [Preparation example 12] |  | 221 to 223 °C | 
8 | CCCc1nc(-c2cc3ccccc3o2)[nH]c1-c1ccccc1 (as salt: HCl) [Preparation example 38] |  | 185 to 188 °C | 
9 | Cc1nc(-c2csc(Cl)c2)[nH]c1-c1cccnc1 (as salt: HCl) [Preparation example 54] |  | 198 to 201 °C | 
10 | O=C(O)Cc1nc(-c2ccc(F)cc2)oc1-c1ccccc1 (as salt: Na) [Preparation Example 153] |  | > 300 °C | 
11 | CCCc1nc(-c2ccc(C#N)cc2)[nH]c1-c1cccs1 (as salt: HCl) [Preparation example 8] |  | 251 to 254 °C | 
12 | CCCc1nc(-c2ccccc2[N+](=O)[O-])[nH]c1-c1ccccc1 (as salt: HCl) [Preparation example 39] |  | 233 to 236 °C | 

Continued, in another order:

Row | pEC50 [1] | melting point | SMILES | 100% inhibition time range [2]
13 |  | 201 to 204 °C | CCc1nc(-c2ccc(Cl)s2)oc1-c1cccnc1.Cl [Preparation example 63, 2-(5-chlorothiophen-2-yl)-4-ethyl-5-(3-pyridyl)oxazole hydrochloride] | C (A≧20>B≧10>C (minute))
14 | 5.52 to 6.00 | 240 to 242 °C | CCCc1nc(-c2ccc(F)cc2)[nH]c1-c1ccc(C#N)cc1 [Preparation example 95] | 
15 | 5.52 to 6.00 | 174 to 176 °C | CCc1nc(-c2ccc(Cl)cc2)[nH]c1-c1ccccc1 [Preparation example 59] | B (A≧20>B≧10>C (minute))
16 |  | 176 to 178 °C | N#CCCc1nc(-c2ccc(F)cc2)[nH]c1-c1ccccc1 [Preparation example 62] | C (A≧20>B≧10>C (minute))
17 |  | 172 to 174 °C | CSCc1nc(-c2ccc(F)cc2)[nH]c1-c1cccnc1 [Preparation example 133] | C (A≧20>B≧10>C (minute))
18 | ≥ 6.30 | 245 to 248 °C (dec.) | COCc1[nH]c(-c2ccc(Cl)s2)nc1-c1cccnc1.Cl.Cl [Preparation example 120, 2-(5-chlorothiophen-2-yl)-5-methoxymethyl-4-(3-pyridyl) imidazole dihydrochloride] | C (A≧20>B≧10>C (minute))
19 | 5.52 to 6.00 | 147 to 149 °C | CCCc1nc(-c2ccc(Cl)cc2)[nH]c1-c1ccccc1 [Preparation example 60] | 
20 |  | 198 to 200 °C | C[S+]([O-])Cc1nc(-c2cccc(F)c2)[nH]c1-c1ccccc1 (centres unmarked) (as salt: HCl) [Preparation example 136] | 
21 |  | 245 to 248 °C | COc1ccccc1-c1c[nH]c(-c2ccc(F)cc2)n1 (as salt: hydrochloride) [Preparation example 66, 2-(4-fluorophenyl)-4-(2-methoxyphenyl)imidazole] | 
22 |  | 220 to 222 °C | CCCc1nc(-c2ccc(F)cc2)[nH]c1-c1ccc([N+](=O)[O-])cc1 (as salt: HCl) [Preparation example 91] | 
23 |  | 256 to 259 °C | CSCc1nc(-c2ccc(C#N)cc2)[nH]c1-c1ccccc1 (as salt: HCl) [Preparation example 132] | 
24 |  | 168 to 170 °C | CCCc1c[nH]c(-c2ccc(F)cc2)n1 [Preparation example 76] | 
25 |  | 228 to 230 °C | CCCc1nc(-c2ccc(F)cc2)[nH]c1-c1cccc(F)c1 (as salt: HCl) [Preparation example 99] | 
26 | 5.52 to 6.00 | 169 to 170 °C | CCc1nc(-c2ccc(F)cc2)[nH]c1-c1ccccc1 [Preparation example 61] | A (A≧20>B≧10>C (minute))
27 |  | 219 to 221 °C (dec.) | CCc1nc(-c2ccc(F)cc2)[nH]c1Br (as salt: hydrochloride) [Preparation example 77, 5-bromo-4-ethyl-2-(4-fluorophenyl)-imidazole] | 
28 |  | 197 to 198 °C | CCOC(=O)c1nc(-c2ccc(F)cc2)[nH]c1CC [Preparation example 69, ethyl 5-ethyl-2-(4-fluorophenyl)imidazol-4-carboxylate] | 
